One assay concerns the target T1, RARβ (Homo sapiens, UniProt P10826).
T1 sequence (P10826 1-455): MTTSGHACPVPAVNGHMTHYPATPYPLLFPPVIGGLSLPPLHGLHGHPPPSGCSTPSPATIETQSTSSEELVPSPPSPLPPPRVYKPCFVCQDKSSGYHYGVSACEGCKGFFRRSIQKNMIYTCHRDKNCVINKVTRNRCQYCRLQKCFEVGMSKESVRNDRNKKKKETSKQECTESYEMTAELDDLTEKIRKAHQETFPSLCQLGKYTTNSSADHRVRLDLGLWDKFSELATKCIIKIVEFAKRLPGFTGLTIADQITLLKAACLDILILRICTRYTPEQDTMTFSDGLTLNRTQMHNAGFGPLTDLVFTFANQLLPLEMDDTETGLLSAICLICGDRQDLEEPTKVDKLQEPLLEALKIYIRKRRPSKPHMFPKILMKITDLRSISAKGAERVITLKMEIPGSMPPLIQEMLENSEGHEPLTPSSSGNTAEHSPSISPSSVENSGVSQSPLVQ
As to the kind of experiment: ligand binding assay. Particulars: read-out: RAR Bind. Ki β.

The target in a further assay is T2, RARγ (Homo sapiens, UniProt P13631).
T2 sequence (P13631 1-454): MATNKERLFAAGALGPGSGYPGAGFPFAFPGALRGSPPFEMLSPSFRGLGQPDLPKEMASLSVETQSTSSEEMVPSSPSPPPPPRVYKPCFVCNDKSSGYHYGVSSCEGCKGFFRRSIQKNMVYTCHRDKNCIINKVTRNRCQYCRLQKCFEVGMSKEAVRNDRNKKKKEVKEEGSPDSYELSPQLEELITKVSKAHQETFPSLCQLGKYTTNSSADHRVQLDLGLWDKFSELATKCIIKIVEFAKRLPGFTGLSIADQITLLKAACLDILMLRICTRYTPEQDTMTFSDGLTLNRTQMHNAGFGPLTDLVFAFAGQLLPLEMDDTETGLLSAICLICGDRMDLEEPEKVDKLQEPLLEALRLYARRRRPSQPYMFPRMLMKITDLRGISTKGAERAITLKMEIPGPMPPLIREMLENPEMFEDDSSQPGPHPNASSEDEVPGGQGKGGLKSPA
As to the kind of experiment: ligand binding assay. Particulars: read-out: RAR Bind. Ki γ.

The target of assay [1] is T3, RXRγ (UniProt P28705).
T3 sequence (P28705 1-463): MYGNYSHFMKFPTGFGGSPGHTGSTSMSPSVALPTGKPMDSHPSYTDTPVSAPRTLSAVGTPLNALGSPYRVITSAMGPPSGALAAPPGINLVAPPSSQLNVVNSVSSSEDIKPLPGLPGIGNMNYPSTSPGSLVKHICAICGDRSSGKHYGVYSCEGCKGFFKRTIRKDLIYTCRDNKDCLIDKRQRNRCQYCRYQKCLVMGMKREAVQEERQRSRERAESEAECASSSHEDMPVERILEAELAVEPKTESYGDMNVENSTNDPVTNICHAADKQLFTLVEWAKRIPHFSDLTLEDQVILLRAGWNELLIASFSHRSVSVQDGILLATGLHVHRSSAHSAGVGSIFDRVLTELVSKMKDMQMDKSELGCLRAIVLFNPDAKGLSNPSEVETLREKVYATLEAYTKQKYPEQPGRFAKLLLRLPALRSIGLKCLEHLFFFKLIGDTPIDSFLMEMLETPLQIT
The assay is described as follows: holoreceptor transactivation assay. As to conditions: percentage compared to the standard compound.
From the text: The results obtained in this assay are expressed in EC50 numbers, as they are also in the chimeric receptor transactivation assay.
Particularly, the transactivation data pertaining to activation of the RAR receptors were obtained in the chimeric assay, and the transactivation data pertaining to the activation of RXR receptors were obtained in the holoreceptor assay.

For assay [2], the target named is T4, RXRγ (Homo sapiens, UniProt P48443).
T4 sequence (P48443 1-463): T3 sequence (P28705 1-463) with T13A, F15Y, V31A, P34S, S228T, S230G, V258M, S450T
As to the kind of experiment: ligand binding assay. As to conditions: read-out: RXR Bind. Ki γ.
From the text: (§1) The results of the ligand binding assay are expressed in Ki numbers.

Changes are numbered by the printed parent chain.

This is an account of results in patent US6759546B1, “3,5-di-iso-propyl-heptatrienoic acid derivatives having serum glucose reducing activity” (Allergan, Inc., priority 2003, dated 2004).

Usually Ki stands for a measure of affinity in units of concentration, obtained from inhibition or displacement.

From the text for RARβ: as §1
From the text for RARγ: as §1

Turning to `CCCOc1c(\C(=C/C=C/C(C)=C/C(=O)O)CC)cc(C(C)C)cc1C(C)C` [Compound 8, 7-(3,5-Diisopropyl-2-propoxy-phenyl)-3-methyl-nona-2,4,6-trienoic acid], the inhibitory constant (Ki) at RARβ was found to be 80 nM; at RARγ, 310 nM. The “RXR Trans. efficacy γ” value on RXRγ [1] was found to be 21%.
With `CCCOc1c(\C(C)=C/C=C/C(C)=C/C(=O)O)cc(C(C)C)cc1C(C)C` [Compound 16, 7-(3,5-Diisopropyl-2-propoxy-phenyl)-3-methyl-octa-2,4,6-trienoic acid], the Ki turned out to be 200 nM on RARβ, 550 nM on RARγ and 21 nM on RXRγ [2]. Moreover, the “RXR Trans. efficacy γ” value on RXRγ [1] turned out to be 25%.
